Where two headings read alike, the source gives them in different places.
Columns and labels:
EGFR del19/T790M/C797S = EGFR del19/T790M/C797S (Homo sapiens, UniProt P00533, C797S/DEL746-750/T790M); test: Biochemical EGFR kinase assay (Lance Ultra TR-FRET), triple mutant del19/T790M/C797S
How it was run: (§1)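 Step 1: compound in kinase buffer, 0.003–10 μM. Step 2: kinase reaction 1 h at room temperature. Step 4: TR-FRET read at 615/665 nm; IC50 calculated.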

EGFR L858R/T790M/C797S = EGFR L858R/T790M/C797S (Homo sapiens, UniProt P00533, C797S/L858R/T790M); test: Biochemical EGFR kinase assay (Lance Ultra TR-FRET), triple mutant L858R/T790M/C797S
Chain of EGFR L858R/T790M/C797S (P00533 25-1210 T790M/C797S/L858R): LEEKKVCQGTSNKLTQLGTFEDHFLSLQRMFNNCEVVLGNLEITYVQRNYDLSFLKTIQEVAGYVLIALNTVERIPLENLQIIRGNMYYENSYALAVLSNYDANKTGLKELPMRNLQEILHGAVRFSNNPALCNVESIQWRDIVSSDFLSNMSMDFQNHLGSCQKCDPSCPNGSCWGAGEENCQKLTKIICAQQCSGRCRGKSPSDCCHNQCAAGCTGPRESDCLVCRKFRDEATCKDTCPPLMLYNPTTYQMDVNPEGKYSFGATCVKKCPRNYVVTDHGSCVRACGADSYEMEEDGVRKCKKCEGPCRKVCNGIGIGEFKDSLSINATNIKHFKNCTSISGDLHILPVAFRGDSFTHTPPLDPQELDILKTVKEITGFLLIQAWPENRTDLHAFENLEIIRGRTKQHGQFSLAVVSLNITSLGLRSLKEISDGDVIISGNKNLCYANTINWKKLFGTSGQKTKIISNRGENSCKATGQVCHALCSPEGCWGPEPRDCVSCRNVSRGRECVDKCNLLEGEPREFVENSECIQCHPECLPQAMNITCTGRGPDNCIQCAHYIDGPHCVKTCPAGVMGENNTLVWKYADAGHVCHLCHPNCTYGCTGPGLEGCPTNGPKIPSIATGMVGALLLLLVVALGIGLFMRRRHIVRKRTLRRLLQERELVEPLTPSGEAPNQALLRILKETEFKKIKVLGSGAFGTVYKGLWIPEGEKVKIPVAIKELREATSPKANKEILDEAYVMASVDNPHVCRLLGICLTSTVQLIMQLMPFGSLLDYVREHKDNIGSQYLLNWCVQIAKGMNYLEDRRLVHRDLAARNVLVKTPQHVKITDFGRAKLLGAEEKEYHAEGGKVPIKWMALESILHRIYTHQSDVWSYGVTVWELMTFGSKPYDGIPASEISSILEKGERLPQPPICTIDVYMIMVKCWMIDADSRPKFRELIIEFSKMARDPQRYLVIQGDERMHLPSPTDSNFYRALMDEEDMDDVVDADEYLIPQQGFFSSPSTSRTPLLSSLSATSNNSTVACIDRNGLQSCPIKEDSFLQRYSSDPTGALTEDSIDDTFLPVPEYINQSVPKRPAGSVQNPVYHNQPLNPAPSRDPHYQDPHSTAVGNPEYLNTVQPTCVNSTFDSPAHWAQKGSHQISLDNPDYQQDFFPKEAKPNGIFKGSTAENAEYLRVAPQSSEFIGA
How it was run: as §1

EGFR del19/C797S = EGFR del19/C797S (Homo sapiens, UniProt P00533, C797S/DEL746-750); test: Biochemical EGFR kinase assay (Lance Ultra TR-FRET), double mutant del19/C797S
Chain of EGFR del19/C797S (P00533 with tags, fused parts or gaps DEL746-750/C797S): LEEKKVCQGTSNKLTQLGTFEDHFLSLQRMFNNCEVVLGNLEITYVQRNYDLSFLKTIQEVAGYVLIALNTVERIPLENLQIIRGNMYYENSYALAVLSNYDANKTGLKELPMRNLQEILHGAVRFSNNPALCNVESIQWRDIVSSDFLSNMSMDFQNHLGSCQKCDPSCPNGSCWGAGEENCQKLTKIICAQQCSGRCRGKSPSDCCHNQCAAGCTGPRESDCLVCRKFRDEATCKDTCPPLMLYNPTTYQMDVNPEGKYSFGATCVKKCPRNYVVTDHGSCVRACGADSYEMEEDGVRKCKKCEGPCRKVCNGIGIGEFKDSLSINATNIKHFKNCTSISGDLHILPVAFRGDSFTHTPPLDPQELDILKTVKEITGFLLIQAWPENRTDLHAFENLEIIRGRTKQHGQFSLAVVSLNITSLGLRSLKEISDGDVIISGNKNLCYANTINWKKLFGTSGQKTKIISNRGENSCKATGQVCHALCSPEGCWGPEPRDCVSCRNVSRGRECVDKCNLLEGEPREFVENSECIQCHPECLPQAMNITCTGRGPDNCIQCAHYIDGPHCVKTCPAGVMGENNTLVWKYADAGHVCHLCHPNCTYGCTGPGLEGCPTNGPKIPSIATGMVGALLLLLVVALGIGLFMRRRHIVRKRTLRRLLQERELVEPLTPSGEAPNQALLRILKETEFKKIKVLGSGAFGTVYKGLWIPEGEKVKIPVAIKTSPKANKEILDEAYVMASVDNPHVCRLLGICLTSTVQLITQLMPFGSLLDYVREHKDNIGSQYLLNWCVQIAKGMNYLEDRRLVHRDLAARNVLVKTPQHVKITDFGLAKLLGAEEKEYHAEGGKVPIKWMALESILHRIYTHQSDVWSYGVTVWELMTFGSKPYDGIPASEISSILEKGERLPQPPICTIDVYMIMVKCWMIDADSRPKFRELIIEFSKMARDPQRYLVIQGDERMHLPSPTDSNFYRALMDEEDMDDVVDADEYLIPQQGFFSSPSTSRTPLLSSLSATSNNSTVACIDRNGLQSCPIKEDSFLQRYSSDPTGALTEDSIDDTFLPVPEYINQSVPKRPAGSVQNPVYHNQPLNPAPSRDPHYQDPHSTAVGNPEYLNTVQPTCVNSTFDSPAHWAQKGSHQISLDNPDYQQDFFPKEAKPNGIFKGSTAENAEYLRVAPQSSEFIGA
How it was run: as §1

EGFR L858R/C797S = EGFR L858R/C797S (Homo sapiens, UniProt P00533, C797S/L858R); test: Biochemical EGFR kinase assay (Lance Ultra TR-FRET), double mutant L858R/C797S
How it was run: as §1

EGFR wildtype (WT) = EGFR wildtype (WT) (Homo sapiens, UniProt P00533); test: Biochemical EGFR kinase assay (Lance Ultra TR-FRET), wildtype
Chain of EGFR wildtype (WT) (P00533 25-1210): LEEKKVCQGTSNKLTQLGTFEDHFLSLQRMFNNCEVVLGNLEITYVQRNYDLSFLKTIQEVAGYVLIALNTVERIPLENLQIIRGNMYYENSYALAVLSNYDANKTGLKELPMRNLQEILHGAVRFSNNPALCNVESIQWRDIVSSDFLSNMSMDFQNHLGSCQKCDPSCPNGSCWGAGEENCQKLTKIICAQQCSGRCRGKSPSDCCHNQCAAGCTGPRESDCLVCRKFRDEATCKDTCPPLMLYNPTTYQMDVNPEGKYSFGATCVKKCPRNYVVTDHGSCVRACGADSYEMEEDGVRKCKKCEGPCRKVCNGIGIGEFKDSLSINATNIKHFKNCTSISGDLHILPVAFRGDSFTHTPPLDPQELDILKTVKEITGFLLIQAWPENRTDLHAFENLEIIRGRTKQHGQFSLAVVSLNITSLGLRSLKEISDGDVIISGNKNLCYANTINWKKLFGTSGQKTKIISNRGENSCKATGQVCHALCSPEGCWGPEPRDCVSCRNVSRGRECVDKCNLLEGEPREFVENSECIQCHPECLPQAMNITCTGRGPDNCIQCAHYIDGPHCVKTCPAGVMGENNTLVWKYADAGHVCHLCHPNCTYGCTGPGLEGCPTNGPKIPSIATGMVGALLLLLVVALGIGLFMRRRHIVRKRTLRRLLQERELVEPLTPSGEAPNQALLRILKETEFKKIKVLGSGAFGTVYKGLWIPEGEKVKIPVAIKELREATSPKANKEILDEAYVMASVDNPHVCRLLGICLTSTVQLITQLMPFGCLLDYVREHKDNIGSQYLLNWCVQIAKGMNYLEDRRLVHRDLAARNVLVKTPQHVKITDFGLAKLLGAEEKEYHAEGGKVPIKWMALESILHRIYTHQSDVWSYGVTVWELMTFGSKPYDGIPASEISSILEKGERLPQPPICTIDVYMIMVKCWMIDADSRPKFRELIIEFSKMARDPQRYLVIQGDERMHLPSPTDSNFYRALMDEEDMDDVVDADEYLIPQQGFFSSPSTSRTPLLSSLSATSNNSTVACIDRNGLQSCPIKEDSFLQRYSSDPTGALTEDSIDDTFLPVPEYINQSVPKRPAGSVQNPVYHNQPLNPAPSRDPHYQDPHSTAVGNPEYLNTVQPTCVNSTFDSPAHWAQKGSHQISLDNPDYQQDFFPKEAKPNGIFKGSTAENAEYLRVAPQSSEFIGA
How it was run: as §1

[1] = Km ATP, read-out: IC50 del19/T790M/C797S (nM) Km ATP
[2] = Km ATP, read-out: IC50 L858R/T790M/C797S (nM) Km ATP
[3] = Km ATP, read-out: IC50 del19/C797S (nM) Km ATP
[4] = Km ATP, read-out: IC50 L858R/C797S (nM) Km ATP
[5] = Km ATP, read-out: IC50 WT (nM) Km ATP
[6] = IC50 del19/T790M/C797S (nM) 100 μM ATP, 100 μM ATP
[7] = IC50 L858R/T790M/C797S (nM) 100 μM ATP, 100 μM ATP
[8] = IC50 del19/C797S (nM) 100 μM ATP, 100 μM ATP
[9] = IC50 L858R/C797S (nM) 100 μM ATP, 100 μM ATP
[10] = IC50 WT (nM) 100 μM ATP, 100 μM ATP

Chain of EGFR del19/T790M/C797S (P00533 with tags, fused parts or gaps DEL746-750/T790M/C797S): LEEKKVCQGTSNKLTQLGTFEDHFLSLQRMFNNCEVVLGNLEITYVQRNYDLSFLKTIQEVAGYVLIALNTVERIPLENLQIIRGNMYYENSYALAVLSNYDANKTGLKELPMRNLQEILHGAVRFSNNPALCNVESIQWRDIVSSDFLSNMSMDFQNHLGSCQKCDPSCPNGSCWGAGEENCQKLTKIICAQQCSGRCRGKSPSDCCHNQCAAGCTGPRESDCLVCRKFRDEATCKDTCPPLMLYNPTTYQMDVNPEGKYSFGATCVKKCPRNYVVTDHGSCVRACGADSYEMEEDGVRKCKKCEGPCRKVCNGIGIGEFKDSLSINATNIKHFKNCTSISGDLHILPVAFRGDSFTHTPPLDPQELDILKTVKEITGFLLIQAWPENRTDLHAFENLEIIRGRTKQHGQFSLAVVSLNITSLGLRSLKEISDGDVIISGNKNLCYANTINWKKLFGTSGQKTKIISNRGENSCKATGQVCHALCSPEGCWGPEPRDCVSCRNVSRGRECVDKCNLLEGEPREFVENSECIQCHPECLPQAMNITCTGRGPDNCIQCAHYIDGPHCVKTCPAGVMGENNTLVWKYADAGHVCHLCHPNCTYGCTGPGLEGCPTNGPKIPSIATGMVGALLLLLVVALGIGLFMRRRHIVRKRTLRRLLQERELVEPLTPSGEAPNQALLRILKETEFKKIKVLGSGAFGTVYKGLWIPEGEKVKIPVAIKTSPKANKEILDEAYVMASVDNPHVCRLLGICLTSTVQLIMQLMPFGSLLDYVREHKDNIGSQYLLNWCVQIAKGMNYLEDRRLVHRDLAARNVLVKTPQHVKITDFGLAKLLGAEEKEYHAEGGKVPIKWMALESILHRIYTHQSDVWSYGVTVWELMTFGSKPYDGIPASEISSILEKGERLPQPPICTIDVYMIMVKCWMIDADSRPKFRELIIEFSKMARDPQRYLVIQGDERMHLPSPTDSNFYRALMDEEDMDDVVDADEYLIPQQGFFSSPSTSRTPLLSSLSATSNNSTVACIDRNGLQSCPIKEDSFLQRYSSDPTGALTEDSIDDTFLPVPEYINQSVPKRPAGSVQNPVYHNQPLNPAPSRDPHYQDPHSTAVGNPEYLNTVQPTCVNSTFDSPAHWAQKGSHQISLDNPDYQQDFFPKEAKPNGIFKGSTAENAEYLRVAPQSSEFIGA

SMILES | IC50 (EGFR del19/T790M/C797S; [1]) [nM] | IC50 (EGFR L858R/T790M/C797S; [2]) [nM] | IC50 (EGFR del19/C797S; [3]) [nM] | IC50 (EGFR L858R/C797S; [4]) [nM] | IC50 (EGFR wildtype (WT); [5]) [nM] | IC50 (EGFR del19/T790M/C797S; [6]) [nM] | IC50 (EGFR L858R/T790M/C797S; [7]) [nM] | IC50 (EGFR del19/C797S; [8]) [nM] | IC50 (EGFR L858R/C797S; [9]) [nM] | IC50 (EGFR wildtype (WT); [10]) [nM] | IC50 (EGFR del19/T790M/C797S; Km ATP, read-out: IC50 del19/T790M/C797S, Km ATP) [nM] | IC50 (EGFR L858R/T790M/C797S; Km ATP, read-out: IC50 L858R/T790M/C797S, Km ATP) [nM] | IC50 (EGFR del19/C797S; Km ATP, read-out: IC50 del19/C797S, Km ATP) [nM] | IC50 (EGFR L858R/C797S; Km ATP, read-out: IC50 L858R/C797S, Km ATP) [nM] | IC50 (EGFR wildtype (WT); Km ATP, read-out: IC50 WT, Km ATP) [nM]
C[C@]1(O)CC[C@@H](Nc2cc(Nc3ccnc(-c4cnc5c(c4)CCCO5)n3)ncc2-c2ccn(C(F)F)n2)CC1 [Example 176, (1s,4s)-4-((5-(1-(Difluoromethyl)-1H-pyrazol-3-yl)-2-((2-(3,4-dihydro-2H-pyrano[2,3-b]pyridin-6-yl)pyrimidin-4-yl)amino)pyridin-4-yl)amino)-1-methylcyclohexan-1-ol] | 0.3 | 0.04 | 264 | 10.4 | 752 | – | – | – | – | – | – | – | – | – | –
Cc1nn(-c2cnc(Nc3ccnc(-c4cnn(S(=O)(=O)C5CC5)c4)n3)cc2N[C@H]2CC[C@@](C)(O)CC2)cc1C(F)(F)F [Example 182, (1s,4s)-4-((2-((2-(1-(Cyclopropylsulfonyl)-1H-pyrazol-4-yl)pyrimidin-4-yl)amino)-5-(3-methyl-4-(trifluoromethyl)-1H-pyrazol-1-yl)pyridin-4-yl)amino)-1-methylcyclohexan-1-ol] | 0.8 | 0.8 | 26.8 | 116 | 781 | – | – | – | – | – | – | – | – | – | –
CN(C)CCCn1ccc(-c2cnc(Nc3ccnc(-c4cnn(S(=O)(=O)C5CC5)c4)n3)cc2N[C@H]2CC[C@@H](CO)CC2)n1 [Example 296, ((1s,4s)-4-((2-((2-(1-(Cyclopropylsulfonyl)-1H-pyrazol-4-yl)pyrimidin-4-yl)amino)-5-(1-(3-(dimethylamino)propyl)-1H-pyrazol-3-yl)pyridin-4-yl)amino)cyclohexyl)methanol] | 0.1 | 0.1 | 0.1 | 0.1 | 0.3 | 0.2 | 0.1 | 0.3 | 0.5 | 48.8 | – | – | – | – | –
Cn1ccc(-c2cnc(Nc3ccnc(-c4cnn(S(=O)(=O)C5CC5)c4)n3)cc2N[C@H]2CC[C@](O)(C(F)F)CC2)n1 [Example 231, (1s,4s)-4-((2-((2-(1-(Cyclopropylsulfonyl)-1H-pyrazol-4-yl)pyrimidin-4-yl)amino)-5-(1-methyl-1H-pyrazol-3-yl)pyridin-4-yl)amino)-1-(difluoromethyl)cyclohexan-1-ol] | 0.3 | 0.3 | 2.4 | 3.1 | 37.3 | 0.5 | 0.7 | 2 | 11.5 | > 10000 | – | – | – | – | –
O=S(=O)(C1CC1)n1cc(-c2nccc(Nc3cc(N[C@H]4CC[C@](O)(CO)CC4)c(-c4cc5n(n4)CCCC5)cn3)n2)cn1 [Example 275, (1s,4s)-4-((2-((2-(1-(Cyclopropylsulfonyl)-1H-pyrazol-4-yl)pyrimidin-4-yl)amino)-5-(4,5,6,7-tetrahydropyrazolo[1,5-a]pyridin-2-yl)pyridin-4-yl)amino)-1-(hydroxymethyl)cyclohexan-1-ol] | 0.4 | 0.2 | 0.4 | 0.4 | 1.8 | 0.6 | 0.5 | 0.6 | 4.7 | 2940 | – | – | – | – | –
CNC(=O)[C@H]1CC[C@@H](Nc2cc(Nc3ccnc(-c4cnn(S(=O)(=O)C5CC5)c4)n3)ncc2-c2ccn(C(F)F)n2)CC1 [Example 24, (1s,4s)-4-((2-((2-(1-(Cyclopropylsulfonyl)-1H-pyrazol-4-yl)pyrimidin-4-yl)amino)-5-(1-(difluoromethyl)-1H-pyrazol-3-yl)pyridin-4-yl)amino)-N-methylcyclohexane-1-carboxamide] | 0.3 | 0.2 | 0.7 | 2 | 6.9 | 0.5 | 0.3 | 0.8 | 14.3 | > 10000 | – | – | – | – | –
Cn1ccc(-c2cnc(Nc3ccnc(-c4cnn(S(=O)(=O)C5CC5)c4)n3)cc2NC2CCC(F)(CO)CC2)n1 (stereo not shown) [Example 222, (4-((2-((2-(1-(Cyclopropylsulfonyl)-1H-pyrazol-4-yl)pyrimidin-4-yl)amino)-5-(1-methyl-1H-pyrazol-3-yl)pyridin-4-yl)amino)-1-fluorocyclohexyl)methanol] | 0.3 | 0.1 | 1.1 | 3.3 | 14.9 | 0.2 | 0.2 | 0.9 | 18.8 | > 10000 | – | – | – | – | –
Cn1nc(-c2cnc(Nc3ccnc(-c4cnn(S(=O)(=O)C5CC5)c4)n3)cc2NC[C@H]2CC[C@@H](O)C2)cc1C(F)(F)F [Example 261, (1R,3S)-3-(((2-((2-(1-(Cyclopropylsulfonyl)-1H-pyrazol-4-yl)pyrimidin-4-yl)amino)-5-(1-methyl-5-(trifluoromethyl)-1H-pyrazol-3-yl)pyridin-4-yl)amino)methyl)cyclopentan-1-ol] | 0.1 | 0.8 | 5.8 | 5.6 | 6.4 | 1.2 | 1.4 | 77.9 | 22.7 | > 10000 | – | – | – | – | –
CN[C@H]1CC[C@@H](Oc2cc(Nc3ccnc(-c4cnn(S(=O)(=O)C5CC5)c4)n3)ncc2-c2cnn(C(F)F)c2)CC1 [Example 69, 2-(1-(Cyclopropylsulfonyl)-1H-pyrazol-4-yl)-N-(5-(1-(difluoromethyl)-1H-pyrazol-4-yl)-4-(((1s,4s)-4-(methylamino)cyclohexyl)oxy)pyridin-2-yl)pyrimidin-4-amine] | 0.3 | 0.2 | 11.2 | 14.7 | 114 | 0.5 | 1.9 | 18.7 | 257 | > 10000 | – | – | – | – | –
CC1CC(Nc2cc(Nc3ccnc(-c4cnn(S(=O)(=O)C5CC5)c4)n3)ncc2-c2ccn(C(F)F)n2)CCC1O (stereo not shown) [Example 105, 4-((2-((2-(1-(Cyclopropylsulfonyl)-1H-pyrazol-4-yl)pyrimidin-4-yl)amino)-5-(1-(difluoromethyl)-1H-pyrazol-3-yl)pyridin-4-yl)amino)-2-methylcyclohexan-1-ol] | 7.7 | 2.5 | 48.2 | 50.7 | 73.2 | 6.2 | 4.8 | 73 | 1100 | > 10000 | – | – | – | – | –
O=S(=O)(C1CC1)n1cc(-c2nccc(Nc3cc(NC4CCC(O)(C5CC5)CC4)c(-c4ccn(C(F)F)n4)cn3)n2)cn1 (stereo not shown) [Example 110, 1-Cyclopropyl-4-((2-((2-(1-(cyclopropylsulfonyl)-1H-pyrazol-4-yl)pyrimidin-4-yl)amino)-5-(1-(difluoromethyl)-1H-pyrazol-3-yl)pyridin-4-yl)amino)cyclohexan-1-ol] | 2.5 | 1.9 | 24.7 | 23.7 | 34.5 | – | – | – | – | – | – | – | – | – | –
Cc1nn(CC(F)(F)F)cc1-c1nccc(Nc2cc(N[C@H]3CC[C@@H](CCO)CC3)c(-c3ccn(CC(F)F)n3)cn2)n1 [Example 337, 2-((1s,4s)-4-((5-(1-(2,2-Difluoroethyl)-1H-pyrazol-3-yl)-2-((2-(3-methyl-1-(2,2,2-trifluoroethyl)-1H-pyrazol-4-yl)pyrimidin-4-yl)amino)pyridin-4-yl)amino)cyclohexyl)ethan-1-ol] | – | – | – | – | – | – | – | – | – | – | 0.8 | 0.5 | 6.1 | 3.7 | 9

— US12258327B2, “5-membered heteroaryl-containing aminopyridine compounds as EGFR inhibitors” (YUHAN CORPORATION, priority 2021, dated 2025)
